Laboratory results published in patent US9499493B2, “2,4-pyrimidinediamine compounds and their uses” (Rigel Pharmaceuticals, Inc., priority 2002, dated 2016).
pIC50: −log10 of the molar value.

What was measured:
[1] = test system: cultured human mast cells (CHMC); assay: CHMC high cell density IgE activation: tryptase; type: cell-based; settings: anti-IgE activation
Method: After sensitizing, cells are counted, pelleted (1000 rpm, 5-10 minutes), and resuspended at 1-2×10^6 cells/ml in MT buffer. Add 100 ul of cell suspension to each well and 100 ul of compound dilutions. The final vehicle concentration is 0.5% DMSO. Incubate at 37° C. (5% CO2) for 1 hour. After 1 hour of compound treatment, stimulate cells with 6× anti-IgE. Mix wells with the cells and allow plates to incubate at 37° C. (5% CO2) for one hour. After 1 hour incubation, pellet cells (10 minutes, 1000 RPM) and collect 200 ul per well of the supernatant, being careful not to disturb pellet. Place the supernatant plate on ice. During the 7-hour step (see next) perform tryptase assay on supernatant that had been diluted 1:500. Resuspend cell pellet in 240 ul of CM media containing 0.5% DMSO and corresponding concentration of compound. Incubate CHMC cells for 7 hours at 37° C. (5% CO2). After incubation, pellet cells (1000 RPM, 10 minutes) and collect 225 ul per well and place in −80° C. until ready to perform ELISAS. ELISAS are performed on appropriately diluted samples (determined empirically for each donor cell population so that the sample measurement falls within the standard curve) following the supplier's instructions.

[2] = test system: bone marrow derived mast cells (BMMC); assay: BMMC high cell density IgE activation: hexosaminidase; type: cell-based, mouse; settings: anti-IgE, second part of TABLE 1, read-out: BMMC anti-IgE hexos. IC50
How it was run: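 IgE-sensitized BMMC at 1-3×10^6 cells/ml preincubated 1 hour at 37° C. with compound (0.5% DMSO), then stimulated 1 hour with DNP-BSA (6× stimulus 60 ng/ml). Supernatant hexosaminidase measured with 2 mM 4-methylumbelliferyl-N-acetyl-glucosaminide substrate at 37° C., read at 5–30 minutes.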

[3] = biological target: Syk kinase (Homo sapiens (Human), UniProt P43405); assay: Isolated Syk kinase: phosphorylation of a peptide substrate or endogenous substrate (LAT)
[4] = Mouse model of allergic asthma (ovalbumin); type: in vivo; settings: less stringent protocol; subcutaneously 70 mg/kg in 67% PEG400/33% citrate buffer, 30 minutes prior to challenge
Excerpt: Mice are sensitized to ovalbumin (chicken protein) in the presence of an adjuvant (Alum) by the intraperitoneal route on day 0 and day 7. One week later, mice are challenged intranasally with ovalbumin on Days 14, 15 and 16 (more stringent model) or on Day 14 (less stringent model). This sensitization and challenge regimen leads to airway hyperresponsiveness and inflammation in the lungs, which are two dominant characteristics of human allergic asthma. In the mouse model, the in vivo airway responses are measured using a whole body plethysmograph which determines the PENH (enhanced Pause, Buxco Electronics). The PENH is a dimensionless value comprised of the peak inspiratory flow (PIF), peak expiratory flow (PEF), time of inspiration, time of expiration and relaxation time, and is considered a validated parameter of airway responsiveness. Responses to allergen challenge (OVA) are compared with animals challenged with saline only. Twenty-four hours after challenge, mice are exposed to increasing doses of methacholine (muscarinic receptor agonist) which results in smooth muscle contraction. […] In addition, a cellular infiltrate in the airway is observed in ovalbumin challenged mice when compared with the saline challenged mice. This cellular infiltrate is mainly characterized by eosinophils, but a smaller influx of neutrophils and mononuclear cells is also present.
The use of this model for the evaluation of small molecule inhibitors of mast cell degranulation has been validated is several ways. First, using mast cell deficient mice (W/W^v) it has been shown that the ovalbumin-induced responses are dependent upon the presence of mast cells.

[5] = test system: CHMC cells; assay: Phosphorylation of proteins downstream of Syk / LYN kinase in the FcεRI cascade, activated CHMC cells; type: cell-based, human; settings: varying concentrations, FIG. 10
[6] = in vitro chromosomal aberration assay
[7] = test system: BMMC cells; assay: Phosphorylation of proteins downstream of Syk kinase in the IgE receptor cascade, activated BMMC cells; type: cell-based, mouse; settings: varying concentrations, FIG. 7
[8] = test system: IgE-induced degranulation of tissue mast cells; assay: Mouse model of passive cutaneous anaphylaxis (PCA); type: in vivo; settings: for % Inhibition (PCA) / Plasma level: PO, 1.5% Avicel/water, pretreatment 15 min
Method: This model provides a direct measure of IgE-induced degranulation of tissue mast cells. In this model, IgE primed animals are exposed to an allergen challenge, and the change in permeability of dermal vasculature that results from histamine release from mast cells is measured by change in the amount of dye leakage into surrounding tissue. Inhibition of mediator release by compounds that modulate mast cell degranulation is easily measured by extracting the dye from the tissue.
In the PCA assay mice are passively sensitized by intradermal injection with anti-dinitrophenol (DNP) IgE antibodies (Day −1). At predetermined times animals are treated with the test agent (Day 0). The modulatory effect of the agent on cutaneous mast cell degranulation is measured following intravenous injection of DNP conjugated to human serum albumin (HSA-DNP), together with Evans blue dye. The resulting cross-linking of the IgE receptor and subsequent mast cell degranulation-induced increase in vascular permeability is determined by measuring the amount of dye extravasation into the tissue. Dye is extracted from the tissue by formamide, and the absorbance of this extract is read at 620 nm.

[9] = increasing concentrations, FIG. 8

Row | Structure (SMILES) | pIC50 [1] | pIC50 [2] | mode of inhibition of Syk kinase ([3]; FIG. 9) | Syk kinase phosphorylation of a peptide substrate [3, 9] | Syk kinase phosphorylation of an endogenous substrate (LAT) [3, 9] | ovalbumin-induced airway hyperresponsiveness and cellular influx [4] | phosphorylation of proteins downstream of Syk kinase [5] | clastogenic potential [6] | phosphorylation of various proteins downstream of Syk kinase [7] | % Inhibition (PCA) ([8]; 30 mg/kg) [%] | Plasma level ([8]; 30 mg/kg) [ng/mL] | % Inhibition (PCA) ([8]; 100 mg/kg) [%] | Plasma level ([8]; 100 mg/kg) [ng/mL] | % Inhibition (PCA) ([8]; 300 mg/kg) [%] | Plasma level ([8]; 300 mg/kg) [ng/mL] | circulating exposure levels at which active ([8]; mouse, in vivo) | FcεR-mediated vascular leakage with increasing doses (in words) ([8]; solution (67% PEG/33% citrate buffer) or aqueous suspension (1.5% Avicel))
1 | CNC(=O)COc1cccc(Nc2ncc(F)c(Nc3cccc(O)c3)n2)c1 [R926508, 5-Fluoro-N4-(3-hydroxyphenyl)-N2-[3-(N-methylamino)carbonylmethyleneoxyphenyl]-2,4-pyrimidinediamine] | 6.36 | 7.07 | – | – | – | – | – | – | – | – | – | – | – | – | – | – | –
2 | CNC(=O)COc1cccc(Nc2ncc(F)c(Nc3ccc4c(c3)NCCO4)n2)c1 [R921219, N4-(1,4-Benzoxazin-6-yl)-5-fluoro-N2-[3-(N-methylamino)carbonylmethyleneoxyphenyl]-2,4-pyrimidinediamine] | – | – | ATP competitive | dose responsive inhibition | dose responsive inhibition | completely blocked | inhibit | not found to possess clastogenic potential | inhibit | 25 | 400 | 68 | 4000 | 92 | 11000 | approximately 10 μg/ml | dose-dependent inhibition
